From patent US7250389B1, “Antifungal compound and process for producing the same” (Meiji Seika Kaisha, Ltd., priority 1998, dated 2007)
Where two headings read alike, the source gives them in different places.

Assays:
[1] = tested on: cucumber downy mildew (pathogenic fungi: Peseudoperonocpora cubensis); test: Test on effect of protecting cucumber against downy mildew; type: in vivo; settings: 200 ppm spray; cucumber seedlings; seven days after inoculation
Description: Cucumber seedlings (variety: Suyo) of first leaf development stage raised in each of plastic pots containing compost were provided. […] The agent was air dried. Thereafter, a conidial suspension, which had been previously prepared by scraping lesion portions on the undersurface of cucumber suffering from cucumber downy mildew (pathogenic fungi: […] cubensis), was evenly inoculated by spraying. The pots were then kept under moist chamber conditions at 20° C. for 24 hr to perform infection. Thereafter, they were transferred to an environment control room kept at 18° C. at night and at 22° C. in the daytime to induce the disease.

[2] = tested on: rice blast fungi (Pyricularia oryzae); type: in vivo
[3] = tested on: cucumber anthracnose fungi (Colletotricum lagenarium); test: Confirmation test on persistence of the effect of protecting cucumber against anthracnose; type: in vivo; settings: for Protective value, Plot 2: inoculation on the day subsequent to holding under fluorescent lamp; for Protective value, Plot 3: inoculation on the day subsequent to holding under sunlight; for Protective value, Plot 1: inoculation on the same day as application
Source text: Cucumber seedlings (variety: Suyo) of first leaf development stage raised in each of plastic pots containing compost were provided. […] The agent was air dried. On the same day or 24 hr after the air drying, a conidial suspension of cucumber anthracnose fungi (Colletotricum lagenarium), which had been previously cultured in a potato soup agar medium, was evenly inoculated by spraying. […] Experimental Plots: Plot 1: Plot subjected to inoculation on the same day as application: Inoculation was carried out on the same day as the air drying, and the pots were allowed to stand under moist chamber conditions at 26° C. for 24 hr and then allowed to stand for 7 days in an environment control room kept at 18° C. at night and at 25° C. in the daytime. Plot 2: Plot subjected to inoculation on the day subsequent to holding under fluorescent lamp: After the air drying, the pots were placed in an environment control room under an indoor fluorescent lamp (the control room being kept at 18° C. at night and at 25° C. in the daytime with the fluorescent lamp being turned on for 8 hr in the daytime). 24 hr after the application of the agent, inoculation was carried out. Thereafter, the pots were allowed to stand under moist chamber conditions at 26° C. for 24 hr and then allowed to stand for 7 days in an environment control room kept at 18° C. at night and at 25° C. in the daytime. Plot 3: Plot subjected to inoculation on the day subsequent to holding under sunlight: After the air drying, the pots were placed outdoors under sunlight in the daytime (8 hr) and then allowed to stand in an environment control room kept at 18° C. 24 hr after the application of the agent, inoculation was carried out. Thereafter, the pots were allowed to stand under moist chamber conditions at 26° C. for 24 hr and then allowed to stand for 7 days in an environment control room kept at […] at night and at 25° C. in the daytime.

[4] = Photostability test (percentage residue as determined by HPLC); type: physicochemical; settings: thin film
Description: In consideration of use in agricultural chemicals, the following test was carried out to obtain data on photostability against exposure to sunlight. Date and Time of Test: First: 5 hr from 12:00 to 17:00 on May 26, 1997 Second: 6 hr from 10:00 to 16:00 on May 28, 1997 Place: For both tests, Odawara-shi, Kanagawa Weather: For both tests, fine […] Acetone was shortly evaporated. As a result, each sample was brought into a white thin film. The films thus obtained were exposed to sunlight. After the completion of exposure to sunlight, the residual amount of UK-2A and the residual amount of the compound of Example 18 were quantitatively determined by HPLC (column: YMC-PACKODS-AS-56.0×150 mm (A-312)), mobile phase: acetonitrile-water=70 : 30 (v/v), detection wavelength: 254 nm).

blast (rice seedlings) = test: Photostability test (effect of protecting rice seedlings against blast, outdoors); type: in vivo; settings: 200 ppm, 100 mL per m^2; outdoor rice seedlings; lesion area 19 days after application
Source text: Rice seedlings of three-leaf stage (variety: Koshihikari) raised outdoors in an upland field bed (1 m×1 m) for rice seedlings were covered with a vinyl tunnel, only at night, with ears of rice suffering from blast being suspended (height 40 cm) to infect rice seedlings with blast. After the incipient infection was confirmed, agent solutions having an agent concentration of 200 ppm prepared by varying the agent concentration by the method as described in Test Example 2 each were applied in an amount of 100 mL per m^2 by means of a sprayer. For one week after the application of the agent, the rice seedlings were covered with the vinyl tunnel at night to promote the infection. 19 days after the application of the agent, the lesion area of the leaf was measured, and the protective value was calculated by the following equation.
Protective value=(1−average lesion area of treated plot)/lesion area of untreated plot)×100

[5] = tested on: cucumber anthracnose fungi (Colletotricum lagenarium); type: in vivo; settings: 200 ppm spray; cucumber seedlings; seven days after inoculation

CC(C)C(=O)O[C@H]1[C@H](C)OC(=O)[C@@H](NC(=O)c2cccc([N+](=O)[O-])c2O)COC(=O)[C@@H]1Cc1ccccc1 [Ex. 40, (2R,3R,4S,7S)-7-(3-Nitrosalicyl)amino-2-benzyl-5,9-dioxa-3-isobutyryloxy-4-methyl-1,6-cyclononanedione]
Protective value [1]: 100

CC(C)C(=O)O[C@H]1[C@H](C)OC(=O)[C@@H](NC(=O)c2cccnc2O)COC(=O)[C@@H]1Cc1ccccc1 [Ex. 4, (2R,3R,4S,7S)-7-(2-Hydroxynicotinylamino)-2-benzyl-5,9-dioxa-3-isobutyryloxy-4-methyl-1,6-cyclononanedione]
Protective value ([2]; in vivo): 86 | Protective value [1]: 78

COc1ccnc(C(=O)N[C@H]2COC(=O)[C@H](Cc3ccccc3)[C@@H](OC(=O)C(C)C)[C@H](C)OC2=O)c1O [UK-2A, reference compound]
Protective value, Plot 2 ([3]; 10 ppm): 93 | Protective value, Plot 3 ([3]; 10 ppm): 27 | Protective value, Plot 1 ([3]; 10 ppm): 80 | Protective value, Plot 2 ([3]; 30 ppm): 100 | Protective value, Plot 3 ([3]; 30 ppm): 60 | Protective value, Plot 1 ([3]; 30 ppm): 100 | Residual amount after exposure to sunlight ([4]; First test: 5 hr sunlight): 33% | Residual amount after exposure to sunlight ([4]; Second test: 6 hr sunlight): 64% | Protective value (blast (rice seedlings)): 63

CC(C)C(=O)O[C@H]1[C@H](C)OC(=O)[C@@H](NC(=O)c2cccc(O)n2)COC(=O)[C@@H]1Cc1ccccc1 [Ex. 5, (2R,3R,4S,7S)-7-(6-Hydroxypicolinylamino)-2-benzyl-5,9-dioxa-3-isobutyryloxy-4-methyl-1,6-cyclononanedione]
Protective value ([2]; in vivo): 90 | Protective value [1]: 100

CC(C)C(=O)O[C@H]1[C@H](C)OC(=O)[C@@H](NC(=O)c2cccc(N)c2O)COC(=O)[C@@H]1Cc1ccccc1 [Ex. 41, (2R,3R,4S,7S)-7-(3-Aminosalicyl)amino-2-benzyl-5,9-dioxa-3-isobutyryloxy-4-methyl-1,6-cyclononanedione]
Protective value ([2]; in vivo): 86 | Protective value [5]: 100 | Protective value [1]: 88

CC(C)C(=O)O[C@H]1[C@H](C)OC(=O)[C@@H](NC(=O)c2nc3ccccc3nc2O)COC(=O)[C@@H]1Cc1ccccc1 [Ex. 8, (2R,3R,4S,7S)-7-(3-Hydroxy-2-quinoxalinecarboxylamino)-2-benzyl-5,9-dioxa-3-isobutyryloxy-4-methyl-1,6-cyclononanedione]
Protective value ([2]; in vivo): 100 | Protective value [5]: 100

CC(C)C(=O)O[C@H]1[C@H](C)OC(=O)[C@@H](NC(=O)c2cc(NC=O)ccc2O)COC(=O)[C@@H]1Cc1ccccc1 [Ex. 52, (2R,3R,4S,7S)-7-(5-Formylaminosalicyl)amino-2-benzyl-5,9-dioxa-3-isobutyryloxy-4-methyl-1,6-cyclononanedione]
Protective value [1]: 100

CC(C)C(=O)O[C@H]1[C@H](C)OC(=O)[C@@H](NC(=O)c2ccccc2O)COC(=O)[C@@H]1Cc1ccccc1 [Ex. 39, (2R,3R,4S,7S)-7-Salicylamino-2-benzyl-5,9-dioxa-3-isobutyryloxy-4-methyl-1,6-cyclononanedione]
Protective value ([2]; in vivo): 98

CC(C)C(=O)O[C@H]1[C@H](C)OC(=O)[C@@H](NC(=O)c2cc(Cl)ccc2O)COC(=O)[C@@H]1Cc1ccccc1 [Ex. 46, (2R,3R,4S,7S)-7-(5-Chlorosalicyl)amino-2-benzyl-5,9-dioxa-3-isobutyryloxy-4-methyl-1,6-cyclononanedione]
Protective value [5]: 100

CCCCCCC1C(=O)OC(C)C(NC(=O)c2cccc(NC=O)c2O)C(=O)OC(C)C1OC(=O)CC(C)C (stereo not drawn) [Antimycin A, reference compound]
Protective value ([2]; 100 ppm spray, rice seedlings, lesions counted seven days after inoculation): 83 | Protective value [5]: 17

COc1ccnc(C(=O)N[C@H]2COC(=O)[C@H](Cc3ccccc3)[C@@H](OC(=O)C(C)C)[C@H](C)OC2=O)c1OC(C)=O [Ex. 18, (2R,3R,4S,7S)-7-(3-Acetoxy-4-methoxypicolinylamino)-2-benzyl-5,9-dioxa-3-isobutyryloxy-4-methyl-1,6-cyclo-nonanedione]
Protective value, Plot 2 ([3]; 10 ppm): 93 | Protective value, Plot 3 ([3]; 10 ppm): 60 | Protective value, Plot 1 ([3]; 10 ppm): 67 | Protective value, Plot 2 ([3]; 30 ppm): 93 | Protective value, Plot 3 ([3]; 30 ppm): 80 | Protective value, Plot 1 ([3]; 30 ppm): 67 | Protective value, Plot 2 ([3]; 100 ppm): 93 | Protective value, Plot 3 ([3]; 100 ppm): 93 | Protective value, Plot 1 ([3]; 100 ppm): 87 | residual effect under sunlight compared with UK-2A ([3]; plot 3): much superior to UK-2A | difference in protective value between UK-2A and the compound of Example 18 ([3]; plots 1 and 2): no significant difference | Residual amount after exposure to sunlight ([4]; First test: 5 hr sunlight): 98% | Residual amount after exposure to sunlight ([4]; Second test: 6 hr sunlight): 93% | Protective value (blast (rice seedlings)): 95

COc1cccc(C(=O)N[C@H]2COC(=O)[C@H](Cc3ccccc3)[C@@H](OC(=O)C(C)C)[C@H](C)OC2=O)c1O [Ex. 38, (2R,3R,4S,7S)-7-(3-Methoxysalicylamino)-2-benzyl-5,9-dioxa-3-isobutyryloxy-4-methyl-1,6-cyclononanedione]
Protective value ([2]; in vivo): 83
